Data on 2 molecules can be found in patent US7829114B2, “Capsules containing aqueous fill compositions stabilized with derivatized cyclodextrin” (CyDex Pharmaceuticals, Inc., priority 2002, dated 2010).

What all share (format): physicochemical
A short description of series [1]: Shell stability on exposure to aqueous fill composition (half-shell integrity test, H.S.I.T.). Particulars: for content in fill composition for an HSIT rating of at least 3: PVP and water fill, lipophilic fill-grade CARDINAL SGC. The method, then:
The same tests were performed on gelatin capsules obtained from CARDINAL HEALTH.

Series [2] can be described thus: H.S.I.T. with SAE-CD, PVP and water fill compositions. The procedure: FIGS. 10a-10i depict ternary graphs correlating the concentration of SAE-CD, water and PVP in a fill composition to the H.S.I.T. rating of a soft shell capsule exposed to the fill composition. Aqueous fill solutions comprising differing amounts of PVP, SAE-CD and water were prepared. The stability tests were conducted as described below. The capsules described herein were used: SHIONOGI HGC (hard gelatin capsule) (FIG. 10A), […] HPMC hard shell capsule (FIG. 10b), SHIONOGI HPMC hard shell capsule (FIG. 10C), […] HGC (FIG. 10D), VEGAGEL hard shell capsule (FIG. 10E), hydrophilic fill-grade CARDINAL SGC (soft gelatin capsule) (FIG. 10f), lipophilic fill-grade CARDINAL SGC (FIG. 10g), hydrophilic fill-grade BANNER SGC (FIG. 10h), and lipophilic fill-grade BANNER SGC (FIG. 10i). No other shell-stabilizing material(s) was (were) included in the fill compositions evaluated. The results varied according to the capsule used. Stabilized aqueous fill composition-containing capsule formulations can be achieved with each capsule if one or more of the following fill compositions detailed below are used. • 1. Water comprises ≧55% of the fill composition, and the combination of SAE-CD, PVP, one or more optional excipients and one or more optional active agents comprises ≧45% of the fill composition; wherein SAE-CD can comprise up to 90% (85%, 83%, or 80%) of the weight of the fill composition, and PVP can comprise less than 90%, respectively, of the weight of the fill composition, provided that the fill composition comprises >≧35% PVP when SAE-CD comprises […]; ≦15% of the weight of the fill composition, and wherein both PVP (preferably water soluble or water swellable) and SAE-CD are present. • 2. Water comprises ≦45% of the fill composition, and the combination of SAE-CD, PVP, one or more optional excipients and one or more optional active agents comprises ≧55% of the fill composition; wherein SAE-CD can comprise up to 90% (85%, 83%, or 80%) of the weight of the fill composition, and PVP can comprise less than 90%, respectively, of the weight of the fill composition, provided that the fill composition comprises ≧35% PVP when SAE-CD comprises ≦20% of the weight of the fill composition, and wherein both PVP (preferably water soluble or water swellable) and SAE-CD are present. • 3. […]

The nature of series [3]: Shell stability on exposure to aqueous fill composition (half-shell integrity test, H.S.I.T.). Particulars: for content in fill composition for an HSIT rating of at least 3: PVP and water fill, hydrophilic fill-grade BANNER SGC. From the text:
Agitation continued until all the SAE-CD dissolved.

[4] abbreviates: SHIONOGI HPMC hard shell capsule.
Setting [5] is: 40% wt. cyclodextrin derivative in water, LFC.
[6] abbreviates: 50% wt. cyclodextrin derivative in water, LFC.
Setting [7] is: 55% wt. cyclodextrin derivative in water, LFC.
Where [8] appears, read: 60% wt. cyclodextrin derivative in water, LFC.
Setting [9] is: 40% wt. cyclodextrin derivative in water, HFB.
Where [10] appears, read: 50% wt. cyclodextrin derivative in water, HFB.
Setting [11] is: 55% wt. cyclodextrin derivative in water, HFB.
The mark [12] stands for this setting: 60% wt. cyclodextrin derivative in water, HFB.

Where two headings read alike, the source gives them in different places.

On to `O` [Water], for which the “content in fill composition for a stabilized capsule formulation” value in series [1] (SAE-CD, PEG and water fill, LFC) is “≦48%”; in series [3] (SAE-CD, PEG and water fill, HFB), “≦48%”. In addition, the “content in fill composition for an HSIT rating of at least 3” value is reported as “≦49%” in series [1] (SAE-CD), “≦54%” in series [2] (SHIONOGI HGC), “≦60%” in series [2] (setting [4]) and “≦54%” in series [3] (SAE-CD).

Take sulfobutyl ether cyclodextrin [SAE-CD]: the results for the “content in fill composition for a stabilized capsule formulation” value in series [1] and in series [3] were “≧18%” and “≧12%”, respectively. In addition, the “Increase in shell size” value is listed as over 3 × original in series [1] (setting [5]); 2 × original in series [1] (setting [6]); “Slightly enlarged” in series [1] (setting [7]); “no change” in series [1] (setting [8]); 2× × original in series [3] (setting [9]); 2.5 × original in series [3] (setting [10]). Besides, the “Increase in shell size” value was 2 × original in series [3] (setting [11]) and “no change” in series [3] (setting [12]). Further, the Observations result in series [1] (setting [5]) is “shape intact”; in series [1] (setting [6]), “deformed”; in series [1] (setting [7]), “No deformities”; in series [1] (setting [8]), “no change”; in series [3] (setting [9]), “shape intact”; in series [3] (setting [10]) it was “Slightly”. Further, the Observations result in series [3] (setting [11]) is reported as “Deformed”; in series [3] (setting [12]), “No change”. Besides, the Time for failure is on record as 4 days in series [1] (setting [5]); 7 days in series [1] (setting [6]); “≧14 days” in series [1] (setting [7]); over 21 days in series [1] (setting [8]); 3 days in series [3] (setting [9]); 16 days in series [3] (setting [10]). For the same molecule, the Time for failure in series [3] (setting [11]) is 10 days; in series [3] (setting [12]), “≧21 days”. The “content in fill composition for an HSIT rating of at least 3” value in series [1] (SAE-CD), in series [2] (SHIONOGI HGC), in series [2] (setting [4]) and in series [3] (SAE-CD) was “≧6%” each time.
